The values below come from patent US9314485B2, “Use of PI3K M-TOR and AKT inhibitors to induce FOXP3 expression and generate regulatory T cells” (Medical Research Council, priority 2006, dated 2016).

In one test the test system is S6 ribosomal protein. The experiment in a line: S6 ribosomal protein phosphorylation (pS6) by intracellular staining/immunoblot. Type of test: cell-based, mouse. To be noted: 18 h activated cells; rapamycin 25 nM, Ly294002 10 g/ml as printed; within one hour. How it is done:
Mouse strains, cell sorting and culture Animal work was carried out according the Animals (Scientific Procedures) Act, UK. Lymph node (LN) cells were stained, analysed and sorted by flow cytometry as described (Cobb et al 2005 J. Exp. Med. 201: 1367-1373). Intracellular staining for Foxp3 protein was done as advised by the manufacturers (eBiosciences.com). The phosphorylation syatus of S6 ribosomal protein was determined using anti pS6 Ser235/236 (Cellsignaling cat.no. 2211, http://www.cellsignal.com) using the eBioscience Foxp3 staining kit and anti rabbit IgG-FITC or IgG-Cy5 (Jackson Immunoresearch). […] CD4 T cell CFSE profiles were recorded between 48 and 72 hours later.
To monitor the activity of the PI3K/mTOR axis in response to TCR signaling, TCR signal withdrawal and treatment with rapamycin and Ly294002, we analysed the level of phosphorylated S6 ribosomal protein (pS6), the target of p70 S6 kinase, which is directly regulated by mTOR. […]
Mice, Cell Sorting and Culture. […] Lymph node (LN) cells or thymocytes from wild type were stained, analysed and sorted by flow cytometry as described (Thompson et al., 2007 Immunity VoI 26 pp 335-344) from wild type (C57BL/6, BALB/c or C57BL/6×129) mice or from Rag1 deficient H2^b AND TCR transgenic mice. […] CD4 T cell CFSE profiles were recorded between 48 and 72 hours later.
(A western blot detects proteins with antibodies after separation by electrophoresis.)

In the next test the test system is Smad2. The experiment in a line: Smad2 phosphorylation western blot. The class given is cell-based, mouse. To be noted: serum free medium, TGFβ 1 ng/ml 90 minutes, inhibitors 90 minutes or 8 hours. The text has this:
TGFβ is known as a powerful inducer of Foxp3 expression in conventional CD4 T cells in vitro and we therefore asked whether TGFβ mediates the induction of Foxp3 by TCR signal deprivation of newly activated T cells and PI3-K/mTOR inhibitors. Since cell culture medium supplemented with FCS contains TGFβ, we carried out the experiments described in this section in serum free lymphocyte culture medium (AIM-V, Invitrogen). […] The binding of TGFβ binding to ALK5 and TGFβ receptor II (TGFβRII) results in the phosphorylation of receptor-associated Smad2 and -3, which subsequently associate with co-Smads, translocate to the nucleus and act as transcriptional regulators. The phosphorylation of Smad proteins therefore provides a sensitive indicator of TGFβ signaling. Naive LN T cells were activated for 18 hours in serum free medium and then exposed to TGFβ (1 ng/ml) […], TCR signal deprivation, or TCR signal deprivation plus rapamycin and Ly294002. […] The blot was subsequently probed with anti Smad2/3 as a loading control.

With TGFβ, the “S6 phosphorylation (pS6)” value in the test on S6 ribosomal protein is reported as “reduced pS6”. The “phosphorylation of Smad2 (pSmad2 S465/467)” value in the test with Smad2 is “readily detectable”; in the test on Smad2 (listed as TGF), “strong phosphorylation of Smad2”.
